In ChEMBL document CHEMBL1201862, “PubChem BioAssay data set” (2004):
Activity calls are given as the source filed them.

Assays:
CAAX prenyl protease 2 [1] = target: T1, CAAX prenyl protease 2 (Homo sapiens, UniProt Q9Y256); test: human Rce1 protease inhibitors, dose response, biochemical, yeast membranes, quenched-peptide fluorescence, cherry-pick (AID 588849)
T1 sequence (Q9Y256 whole entry): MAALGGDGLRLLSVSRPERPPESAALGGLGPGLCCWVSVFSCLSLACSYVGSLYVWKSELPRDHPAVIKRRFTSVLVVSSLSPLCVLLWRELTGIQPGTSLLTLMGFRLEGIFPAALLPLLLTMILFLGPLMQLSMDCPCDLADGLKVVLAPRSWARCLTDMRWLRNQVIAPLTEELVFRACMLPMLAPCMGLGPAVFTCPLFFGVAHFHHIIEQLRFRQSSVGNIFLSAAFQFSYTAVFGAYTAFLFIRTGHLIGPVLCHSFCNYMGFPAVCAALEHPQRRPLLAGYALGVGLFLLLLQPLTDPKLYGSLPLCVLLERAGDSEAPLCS

CAAX prenyl protease 2 [2] = target: T2, CAAX prenyl protease 2 (Saccharomyces cerevisiae S288c, UniProt Q03530); type: biochemical
T2 sequence (Q03530 whole entry): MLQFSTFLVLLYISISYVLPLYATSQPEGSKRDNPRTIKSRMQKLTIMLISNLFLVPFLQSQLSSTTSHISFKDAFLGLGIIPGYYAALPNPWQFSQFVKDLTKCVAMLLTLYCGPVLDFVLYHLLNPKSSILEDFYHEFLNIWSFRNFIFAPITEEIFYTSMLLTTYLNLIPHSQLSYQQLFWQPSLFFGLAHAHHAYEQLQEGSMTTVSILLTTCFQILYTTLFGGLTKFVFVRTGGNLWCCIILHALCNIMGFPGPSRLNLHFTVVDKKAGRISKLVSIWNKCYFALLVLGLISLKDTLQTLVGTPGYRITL

Trypsin = Trypsin (Sus scrofa, UniProt P00761); test: porcine trypsin inhibitors, dose response, selectivity assay for Rce1 protease inhibitor project, biochemical, quenched peptide fluorescence, cherry-pick (AID 488789)
Trypsin, sequence (P00761 whole entry): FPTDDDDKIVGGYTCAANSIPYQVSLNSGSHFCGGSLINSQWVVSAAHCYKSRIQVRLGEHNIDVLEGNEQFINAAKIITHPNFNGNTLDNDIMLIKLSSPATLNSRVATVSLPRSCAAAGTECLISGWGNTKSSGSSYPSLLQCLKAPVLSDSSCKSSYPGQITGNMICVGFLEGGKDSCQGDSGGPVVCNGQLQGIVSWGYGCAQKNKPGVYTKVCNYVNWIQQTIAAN

[3] = target: T3, Microphthalmia-associated transcription factor (Homo sapiens, UniProt O75030); test: TRPM1 promoter luciferase signal decrease, dose response, MITF inhibitor project, cell-based, SK-MEL-5, cherry-picked, set 3 (AID 493073); type: functional
T3 sequence (O75030 whole entry): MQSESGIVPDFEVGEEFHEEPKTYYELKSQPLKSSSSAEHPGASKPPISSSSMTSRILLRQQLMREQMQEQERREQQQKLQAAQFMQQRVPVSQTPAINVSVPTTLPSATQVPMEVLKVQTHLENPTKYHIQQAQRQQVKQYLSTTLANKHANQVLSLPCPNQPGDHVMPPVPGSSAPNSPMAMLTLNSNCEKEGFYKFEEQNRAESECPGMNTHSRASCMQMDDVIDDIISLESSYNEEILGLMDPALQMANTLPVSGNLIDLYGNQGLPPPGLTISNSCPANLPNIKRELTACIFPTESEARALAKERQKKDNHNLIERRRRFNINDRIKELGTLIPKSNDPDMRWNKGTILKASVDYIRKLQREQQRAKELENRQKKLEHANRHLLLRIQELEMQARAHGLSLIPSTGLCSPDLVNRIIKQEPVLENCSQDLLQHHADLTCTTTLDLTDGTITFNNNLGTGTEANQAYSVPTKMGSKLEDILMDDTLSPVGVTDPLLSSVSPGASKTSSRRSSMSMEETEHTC

Vero = test: cells; type: functional; conditions: Chlorocebus sabaeus
Protein skinhead-1 = target: T4, Protein skinhead-1 (Caenorhabditis elegans, UniProt P34707); type: functional
T4 sequence (P34707 whole entry): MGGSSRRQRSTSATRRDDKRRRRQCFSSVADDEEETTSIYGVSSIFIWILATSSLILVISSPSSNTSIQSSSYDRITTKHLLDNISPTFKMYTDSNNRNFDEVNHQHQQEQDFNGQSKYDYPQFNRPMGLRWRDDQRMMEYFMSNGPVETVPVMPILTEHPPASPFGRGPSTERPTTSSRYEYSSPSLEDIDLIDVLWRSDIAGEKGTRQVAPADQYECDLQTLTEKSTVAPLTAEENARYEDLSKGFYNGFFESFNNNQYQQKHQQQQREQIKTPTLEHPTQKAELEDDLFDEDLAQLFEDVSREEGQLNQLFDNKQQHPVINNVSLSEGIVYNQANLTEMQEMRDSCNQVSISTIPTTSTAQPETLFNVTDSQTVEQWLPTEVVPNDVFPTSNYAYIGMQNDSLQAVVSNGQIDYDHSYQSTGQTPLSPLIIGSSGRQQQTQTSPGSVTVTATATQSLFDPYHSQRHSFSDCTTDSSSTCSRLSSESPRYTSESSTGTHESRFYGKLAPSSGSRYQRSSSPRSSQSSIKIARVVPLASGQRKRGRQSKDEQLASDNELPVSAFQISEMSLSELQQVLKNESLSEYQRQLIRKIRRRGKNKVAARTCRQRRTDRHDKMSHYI

HeLa = test: HeLa cell cytotoxicity, dose response, cytotoxicity control for MITF activator project, CellTiter-Glo luminescence, cherry-pick samples (AID 540259); type: functional, cell-based; conditions: Homo sapiens
Streptococcus = test: Group A Streptococcus viability loss, dose response, counter-screen for streptokinase expression inhibitor project, luminescence, BacTiterGlo (AID 1915); type: functional, organism-based;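 note: potency for reduction of bacterial viability or growth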
[4] = target: T5, Zinc finger protein mex-5 (Caenorhabditis elegans, UniProt Q9XUB2); test: MEX-5/TCR-2 RNA interaction inhibitors, dose response, biochemical, C. elegans, fluorescence polarization (AID 1960)
T5 sequence (Q9XUB2 whole entry): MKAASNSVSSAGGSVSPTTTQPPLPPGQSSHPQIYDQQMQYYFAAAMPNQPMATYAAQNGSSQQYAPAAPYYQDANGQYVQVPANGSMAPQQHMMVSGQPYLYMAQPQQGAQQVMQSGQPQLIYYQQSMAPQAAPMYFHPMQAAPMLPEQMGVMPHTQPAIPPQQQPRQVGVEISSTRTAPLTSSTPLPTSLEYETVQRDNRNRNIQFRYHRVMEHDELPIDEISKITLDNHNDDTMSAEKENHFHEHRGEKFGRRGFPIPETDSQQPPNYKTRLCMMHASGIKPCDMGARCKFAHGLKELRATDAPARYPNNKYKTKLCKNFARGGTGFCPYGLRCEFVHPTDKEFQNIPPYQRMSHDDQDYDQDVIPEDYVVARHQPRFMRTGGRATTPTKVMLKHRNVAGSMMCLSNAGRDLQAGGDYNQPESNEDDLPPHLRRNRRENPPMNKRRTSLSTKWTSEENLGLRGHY

[5] = tested on: Streptococcus sp. 'group A'; test: growth inhibition of control SK(-) GAS strain, dose response, counter-screen for streptokinase expression inhibitor project, luminescence, kanamycin, BacTiterGlo, confirmation (AID 1900); type: functional, organism-based
[6] = target: T6, RNA-binding protein pos-1 (Caenorhabditis elegans, UniProt G5EF15); test: inhibitors of POS-1/mex-3 RNA binding, dose response, biochemical, fluorescence polarization (AID 1964);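 note: purified POS-1 fused to maltose binding protein made in E. coli; potency of compounds blocking POS-1 binding to fluorescent RNA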
T6 sequence (G5EF15 whole entry): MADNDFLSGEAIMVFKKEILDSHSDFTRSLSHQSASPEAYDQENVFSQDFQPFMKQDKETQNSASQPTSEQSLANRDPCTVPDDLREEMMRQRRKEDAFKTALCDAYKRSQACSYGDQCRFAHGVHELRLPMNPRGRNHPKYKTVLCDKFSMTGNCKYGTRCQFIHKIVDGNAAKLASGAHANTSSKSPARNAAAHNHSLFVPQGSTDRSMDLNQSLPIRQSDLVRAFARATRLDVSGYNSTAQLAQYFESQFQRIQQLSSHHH

HEK293 [7] = test: cells; type: functional, cell-based; conditions: Homo sapiens
[8] = control 3'UTR Renilla luciferase suppression, dose response, counter-screen for Shn3 inhibitor project, cell-based, Clone20-Shn3RL, cherry-picked (AID 624133); type: functional
Tumor necrosis factor = Tumor necrosis factor (Homo sapiens, UniProt P01375); test: TNFa-triggered NF-kB activation inhibitors, SAR follow-up, cell-based, revised (AID 2337); type: functional
Tumor necrosis factor, sequence (P01375 whole entry): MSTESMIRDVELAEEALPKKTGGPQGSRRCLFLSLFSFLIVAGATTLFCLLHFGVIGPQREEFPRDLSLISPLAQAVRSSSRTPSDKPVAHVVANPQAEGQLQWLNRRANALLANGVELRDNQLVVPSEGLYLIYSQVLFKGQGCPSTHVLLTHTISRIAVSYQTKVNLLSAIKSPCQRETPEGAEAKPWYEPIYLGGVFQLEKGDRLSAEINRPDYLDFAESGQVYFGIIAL

HEK293 [9] = test: cells; type: functional, cell-based; conditions: Homo sapiens; remark: listed apart in the source
HEK293 [10] = test: NOD1 signaling inhibitors, primary screen, cell-based, luminescence, uHTS (AID 1578); type: functional; conditions: Homo sapiens
HEK293 [11] = test: NOD2 signaling inhibitors in MDP-stimulated cells, cell-based, uHTS, luminescence (AID 2001); type: functional; conditions: Homo sapiens
[12] = target: T7, Nucleotide-binding oligomerization domain-containing protein 2 (Homo sapiens, UniProt Q9HC29); test: PubChem AID 2334; type: functional
T7 sequence (Q9HC29 whole entry, the tested form may be a part): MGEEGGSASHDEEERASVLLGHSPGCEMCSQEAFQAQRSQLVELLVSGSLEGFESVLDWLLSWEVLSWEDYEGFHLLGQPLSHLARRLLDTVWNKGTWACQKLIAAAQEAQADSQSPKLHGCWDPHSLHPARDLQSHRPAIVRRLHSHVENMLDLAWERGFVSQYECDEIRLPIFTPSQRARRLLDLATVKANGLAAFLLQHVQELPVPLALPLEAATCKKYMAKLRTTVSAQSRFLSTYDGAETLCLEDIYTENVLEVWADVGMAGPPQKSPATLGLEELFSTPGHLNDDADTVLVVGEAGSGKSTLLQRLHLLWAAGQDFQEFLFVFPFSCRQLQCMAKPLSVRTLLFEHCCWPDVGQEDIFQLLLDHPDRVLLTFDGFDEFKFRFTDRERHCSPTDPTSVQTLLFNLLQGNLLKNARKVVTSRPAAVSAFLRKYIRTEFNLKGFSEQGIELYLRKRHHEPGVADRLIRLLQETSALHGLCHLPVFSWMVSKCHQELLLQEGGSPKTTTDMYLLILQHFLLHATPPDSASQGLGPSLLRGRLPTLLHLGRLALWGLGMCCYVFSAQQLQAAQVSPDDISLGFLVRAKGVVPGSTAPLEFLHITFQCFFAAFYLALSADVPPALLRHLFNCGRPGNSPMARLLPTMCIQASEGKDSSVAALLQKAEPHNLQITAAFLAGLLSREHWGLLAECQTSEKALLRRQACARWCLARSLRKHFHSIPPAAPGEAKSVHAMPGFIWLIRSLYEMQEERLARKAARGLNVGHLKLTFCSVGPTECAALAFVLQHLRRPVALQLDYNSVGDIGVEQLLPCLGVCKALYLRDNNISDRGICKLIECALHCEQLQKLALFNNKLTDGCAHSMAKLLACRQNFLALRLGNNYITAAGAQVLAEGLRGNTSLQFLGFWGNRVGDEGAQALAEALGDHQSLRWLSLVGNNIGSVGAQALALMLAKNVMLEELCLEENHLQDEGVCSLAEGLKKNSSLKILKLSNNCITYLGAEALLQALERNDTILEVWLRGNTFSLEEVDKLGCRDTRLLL

INS1 = test: beta cell apoptosis inhibitors, cytokine rescue, dose response, luminescence, retest (AID 449756); type: functional, cell-based; conditions: Rattus norvegicus;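 note: cell death triggered by IL-1 beta plus TNF-alpha plus IFN-gamma mixture; protective hits raise ATP signal compared with cytokine alone wells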
HEK293 [13] = test: cells; type: functional, cell-based; conditions: Homo sapiens; remark: listed apart in the source
[14] = target: T7, Nucleotide-binding oligomerization domain-containing protein 2; test: NOD2 signaling inhibitors, cell-based, luminescence, uHTS, HEK293 (AID 1566); type: functional
[15] = Shn3 3'UTR reporter inhibitors, dose response, cell-based, Clone20 osteoblasts, firefly luciferase, cherry-picked (AID 624132); type: functional;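 note: firefly luciferase luminescence from reporter carrying the Shn3 3'UTR in osteoblasts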
[16] = target: T8, Nucleotide-binding oligomerization domain-containing protein 1 (Homo sapiens, UniProt Q9Y239); test: NOD1 signaling inhibitors, SAR follow-up, revised (AID 2333); type: functional
T8 sequence (Q9Y239 whole entry): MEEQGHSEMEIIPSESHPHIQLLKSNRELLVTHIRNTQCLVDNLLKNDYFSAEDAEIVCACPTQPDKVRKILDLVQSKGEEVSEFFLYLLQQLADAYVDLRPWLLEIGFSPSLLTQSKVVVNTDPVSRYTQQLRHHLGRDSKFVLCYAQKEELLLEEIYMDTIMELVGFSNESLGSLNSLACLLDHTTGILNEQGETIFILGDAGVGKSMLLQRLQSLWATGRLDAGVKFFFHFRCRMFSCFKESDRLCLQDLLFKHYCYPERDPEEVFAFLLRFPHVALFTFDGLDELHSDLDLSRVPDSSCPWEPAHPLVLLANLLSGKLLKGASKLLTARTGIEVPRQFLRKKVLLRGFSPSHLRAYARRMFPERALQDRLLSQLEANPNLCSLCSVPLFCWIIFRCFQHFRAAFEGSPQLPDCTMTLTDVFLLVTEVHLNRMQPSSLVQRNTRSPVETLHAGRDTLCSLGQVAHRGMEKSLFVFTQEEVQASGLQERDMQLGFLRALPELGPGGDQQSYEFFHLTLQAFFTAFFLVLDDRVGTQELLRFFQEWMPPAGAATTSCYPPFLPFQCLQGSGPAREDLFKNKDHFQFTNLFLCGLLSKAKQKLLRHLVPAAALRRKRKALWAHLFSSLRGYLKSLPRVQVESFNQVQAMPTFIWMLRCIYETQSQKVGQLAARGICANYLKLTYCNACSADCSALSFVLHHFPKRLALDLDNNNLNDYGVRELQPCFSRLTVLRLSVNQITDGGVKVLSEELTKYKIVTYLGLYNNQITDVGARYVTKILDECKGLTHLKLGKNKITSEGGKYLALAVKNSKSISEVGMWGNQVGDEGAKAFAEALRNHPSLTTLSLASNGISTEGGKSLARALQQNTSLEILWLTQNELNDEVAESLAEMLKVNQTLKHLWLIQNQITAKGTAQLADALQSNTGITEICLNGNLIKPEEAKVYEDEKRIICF

HEK293 [17] = test: cells; conditions: Homo sapiens
[18] = microbe, parasite or virus in culture; type: functional; conditions: Mycobacterium tuberculosis

## CC(C)C(=O)Nc1c2c(nc3ccccc13)N(C)CC2
CAAX prenyl protease 2 [1]
  AC50: 24 µM (active)
CAAX prenyl protease 2 [2]
  AC50: 36.2 µM (active)
Trypsin
  AC50: 12.8 µM (active)

## CCn1nnnc1SCC(=O)Nc1nc(C)c(C)s1
CAAX prenyl protease 2 [1]
  AC50: 9.77 µM (active)

## O=C(Nc1ccccc1N1CCN(C(=O)c2ccccc2)CC1)c1ccc([N+](=O)[O-])o1
[3]
  AC50: 11.4 µM (active)
Vero
  CC50: 21.6 µM (active)

## O=C(Nc1ccc([N+](=O)[O-])cc1)c1ccccc1
Protein skinhead-1
  IC50: > 100 µM (inactive)
[3]
  AC50: 40.2 µM (active)

## COc1ccc(/C=C/c2ccc3c(Br)ccc(O)c3n2)cc1
HeLa
  AC50: 35.9 µM (active)
Streptococcus
  EC50: 1.66 µM (active)
[4]
  EC50: > 300 µM (not active)
[5]
  EC50: 0.923 µM (active)
[6]
  EC50: 117 µM (active)

## CCOC(=O)c1c(C)[nH]c(C)c1C(=O)CSc1nc2ccccc2c(=O)n1-c1ccc(CC)cc1
HEK293 [7]
  IC50: > 20 µM (inactive)
[8]
  AC50: 6.48 µM (active)
Tumor necrosis factor
  IC50: 11.1 µM (active)
HEK293 [9]
  IC50: > 20 µM (inactive)
HEK293 [10]
  EC50: 6.9 µM (active)
HEK293 [11]
  IC50: 7.12 µM (active)
[12]
  IC50: 12 µM (active)
INS1
  AC50: 5.33 µM (active)
HEK293 [13]
  IC50: 13.4 µM (active)
[14]
  EC50: 5.86 µM (active)
[15]
  AC50: 5.36 µM (active)
[16]
  IC50: 15.2 µM (active)
HEK293 [17]
  IC50: > 20 µM (inactive)

## CCC(=O)N1CCc2cc(S(=O)(=O)N3CCN(c4ccc(Cl)cc4)CC3)ccc21
Tumor necrosis factor
  IC50: > 20 µM (inactive)
[12]
  IC50: > 20 µM (inactive)
[16]
  IC50: > 20 µM (inactive)
HEK293 [17]
  IC50: > 20 µM (inactive)

## CC(=O)N1CCc2cc(S(=O)(=O)N3CCN(c4ccc(C#N)cc4)CC3)ccc21
Tumor necrosis factor
  IC50: 8.79 µM (active)
[12]
  IC50: 9.24 µM (active)
[16]
  IC50: 5.87 µM (active)
HEK293 [17]
  IC50: > 20 µM (inactive)

## CC(C)c1ccc2nc(N)sc2c1
HeLa
  AC50: 54.4 µM (active)
[18]
  CC50: > 40 µM (active)
